Experimental data reported in US11578055B2, “Triazacyclododecansulfonamide (“TCD”)-based protein secretion inhibitors” (KEZAR LIFE SCIENCES, priority 2018, dated 2023).
Counter-ions that a name gives are not always drawn. Like-named read-outs stand apart in the source and are kept apart here.

How the values were obtained:
[1] = test system: multiple myeloma cell line NCl-H929; experiment: H929 Cell Viability Assay; assay type: cell-based, human; settings: Homo sapiens, NCI-H929, 48 h
Description: The human multiple myeloma cell line NCl-H929 was cultured in Advanced RPMI 1640 media (Gibco®) supplemented with 6% fetal bovine serum, 2 mM Glutamine, and 1× Penicillin/Streptomycin. On the day of assay, cells were resuspended in RPMI 1640 media supplemented with 10% fetal bovine serum, 2 mM Glutamine, and 1× Penicillin/Streptmycin and plated in 384-well tissue culture plates and treated with compound dilutions in DMSO/media. Plates were incubated at 37° C., 5% CO2 for 48 hours. After 48 hours, Celltiter-Glo® (Promega) was added to each well and luciferase signal was quantified using Tecan Infinite M1000 Pro for cell viability determination.
(§1) For chemical structures that include one or more stereoisomers, but are illustrated without indicating stereochemistry, the assay data refers to a mixture of stereoisomers.

[2] = In Vitro Microsome Stability Assay (mouse); assay type: in vitro ADME
Description: (§2) Potassium phosphate (423 μL of a 0.1 M solution) was added to 8-strip deep well tubes followed by human, mouse, rat, or monkey microsomes (25 μL of a 20 mg/mL solution). The tubes were then placed on ice and the test article (2 μL of a 0.25 mM solution in DMSO) was added. The mixture was preincubated at 37° C. for 3 to 5 minutes (shaking at 150 rpm) then the reaction was initiated by adding 50 μL NADPH. An aliquot of samples (100 μL) were collected at 0 and 30 min and 200 μL of an acetonitrile mixture containing IS (compound 914) was added to quench the reaction. After centrifuging for 10 min at 4000 rpm, a mixed solution of the 20 μL of the supernatant (20 μL) plus 100 μL ACN/H2O (1:1) were injected for LC-MS/MS analysis. Liver microsome stability is assessed by the % remaining of compound at 30 min which is calculated using the following equation: [(AUCanalyteT=30/AUCIS)/(AUCanalyteT=0/AUCIS)]*100
as §1

[3] = In Vitro Microsome Stability Assay (rat); assay type: in vitro ADME
Description: as §2, §1

[4] = In Vitro Microsome Stability Assay (human); assay type: in vitro ADME
Description: as §2, §1

[5] = test system: multiple myeloma cell line U266B1; experiment: U266 Cell Viability Assay; assay type: cell-based, human; settings: Homo sapiens, U-266, 48 hr
Description: The human multiple myeloma cell line U266B1 was cultured in RPMI 1640 media supplemented with 10% fetal bovine serum, 2 mM Glutamine, and 1× Penicillin/Streptomycin. Cells were plated in 384-well tissue culture plates and treated with compound dilutions in DMSO/media. Plates were incubated at 37° C., 5% CO2 for 48 hours. After 48 hours, Celltiter-Glo® (Promega) was added to each well and luciferase signal was quantified using Tecan Infinite M1000 Pro for cell viability determination.
For chemical structures that include one or more stereoisomers, but are illustrated without indicating stereochemistry, the assay data refers to a mixture of stereoisomers

[6] = In Vitro Microsome Stability Assay (monkey); assay type: in vitro ADME
Description: as §2, §1

[7] = test system: PD1 signal sequence plus 10 amino acids fused to Gaussia Luciferase (PD1-ss+10aa/Gaussia Luciferase); experiment: Dox Induced PD1-ss-Gluc Assay; assay type: cell-based; settings: 24 hr, read-out: 24 hr Dox Inducible PD1ssGluc 293FRT/TO: Mean IC50
Description: FIp-In 293 T-REx™ cells were transfected with pcDNA™5/FRT/TO plasmid inserted with cDNA encoding Gaussia Luciferase fused to the 3′ end of cDNA encoding PD1 signal sequence plus 10 amino acids (N-[…]-C) (SEQ ID NO: 1). Transfected cells were selected for resistance to the selectable markers Hygromycin and Blasticidin to create a stable cell line that contained the PD1-ss+10aa/Gaussia Luciferase cDNA insert whose expression was regulated under the T-REx™ system. The day before assay, cells were trypsinized and plated in 384-well tissue culture plates. The next day, compound dilutions in DMSO/media containing doxycycline were added to the wells and incubated at 37° C., 5% CO2.
as §1

[8] = test system: full length TNFα (amino acids 1-233) fused to Gaussia Luciferase; experiment: Dox Induced TNFα-FL-Gluc Assay; assay type: cell-based; settings: 24 hr, read-out: 24 hr Dox Inducible TNFaFLGluc 293FRT/TO: Mean IC50
Description: FIp-In 293 T-REx™ cells were transfected with pcDNA™5/FRT/TO plasmid inserted with cDNA encoding Gaussia Luciferase fused to the 3′ end of cDNA encoding full length TNFα (amino acids 1-233). Transfected cells were selected for resistance to the selectable markers Hygromycin and Blasticidin to create a stable cell line that contained the TNFα-FL/Gaussia Luciferase cDNA insert whose expression was regulated under the T-REx™ system. The day before assay, cells were trypsinized and plated in 384-well tissue culture plates. The next day, compound dilutions in DMSO/media containing doxycycline were added to the wells and incubated at 37° C., 5% CO2.
as §1

[9] = H929, read-out: 48 hr H929 Viability Celltiter-Glo: Mean EC50
[10] = U266, read-out: 48 hr U266 Viability Celltiter-Glo: Mean EC50
[11] = mouse liver microsomes, 30 min w/ NADPH
[12] = rat liver microsomes, 30 min w/ NADPH
[13] = human liver microsomes, 30 min w/ NADPH
[14] = monkey liver microsomes, 30 min w/ NADPH

## C=C1CN(S(=O)(=O)c2ccc(N(C)C)cc2)CCCN(CC2CCCCC2)CCCN(S(=O)(=O)N2CCN(c3ccccc3Cl)CC2)C1 [A83, 4-[(5-{[4-(2-chlorophenyl)piperazin-1-yl]sulfonyl}-9-(cyclohexylmethyl)-3-methylidene-1,5,9-triazacyclododecan-1-yl)sulfonyl]-N,N-dimethylaniline]
[1]; [9]
  EC50: 0.96 µM
[2]; mouse, 30 min, NADPH
  Liver Microsome Stability-% Left after 30 min w/ NADPH (%) Mouse: 23.4%
[3]; rat, 30 min, NADPH
  Liver Microsome Stability-% Left after 30 min w/ NADPH (%) Rat: 47.6%
[4]; human, 30 min, NADPH
  Liver Microsome Stability-% Left after 30 min w/ NADPH (%) Human: 39.3%
[5]; [10]
  EC50: > 25 µM
[6]; monkey, 30 min, NADPH
  Liver Microsome Stability-% Left after 30 min w/ NADPH (%) Monkey: 34.9%
[7]; 293FRT/TO
  IC50: 28.2 nM
[8]; 293FRT/TO
  IC50: 0.961 µM

## C=C1CN(S(=O)(=O)c2ccc(N(C)C)cc2)CCCN(CC2CCCCC2)CCCN(S(=O)(=O)N2CCc3cc(Cl)ccc3C2)C1 [A53, 4-({5-[(6-chloro-1,2,3,4-tetrahydroisoquinolin-2-yl)sulfonyl]-9-(cyclohexylmethyl)-3-methylidene-1,5,9-triazacyclododecan-1-yl}sulfonyl)-N,N-dimethylaniline]
[1]; [9]
  EC50: 1.72 µM
[2]; mouse, 30 min, NADPH
  Liver Microsome Stability-% Left after 30 min w/ NADPH (%) Mouse: 39.2%
[3]; rat, 30 min, NADPH
  Liver Microsome Stability-% Left after 30 min w/ NADPH (%) Rat: 50.5%
[4]; human, 30 min, NADPH
  Liver Microsome Stability-% Left after 30 min w/ NADPH (%) Human: 38%
[5]; [10]
  EC50: > 10.3 µM
[6]; monkey, 30 min, NADPH
  Liver Microsome Stability-% Left after 30 min w/ NADPH (%) Monkey: 39%
[7]; 293FRT/TO
  IC50: 35.3 nM
[8]; 293FRT/TO
  IC50: 1.01 µM

## C=C1CN(S(=O)(=O)c2ccc(N(C)C)cc2)CCCN(CC2CCCCC2)CCCN(S(=O)(=O)N2CCC[C@H](c3ccccc3)C2)C1 [A49, 4-{[9-(cyclohexylmethyl)-3-methylidene-5-{[(3 R)-3-phenylpiperidin-1-yl]sulfonyl}-1,5,9-triazacyclododecan-1-yl]sulfonyl}-N,N-dimethylaniline]
[1]; [9]
  EC50: > 25 µM
[2]; mouse, 30 min, NADPH
  Liver Microsome Stability-% Left after 30 min w/ NADPH (%) Mouse: 11.8%
[3]; rat, 30 min, NADPH
  Liver Microsome Stability-% Left after 30 min w/ NADPH (%) Rat: 16.4%
[4]; human, 30 min, NADPH
  Liver Microsome Stability-% Left after 30 min w/ NADPH (%) Human: 3.5%
[5]; [10]
  EC50: > 25 µM
[6]; monkey, 30 min, NADPH
  Liver Microsome Stability-% Left after 30 min w/ NADPH (%) Monkey: 9.36%
[7]; 293FRT/TO
  IC50: 407 nM
[8]; 293FRT/TO
  IC50: > 25 µM

## CN(C)c1ccc(S(=O)(=O)NCCCN(CCCNS(=O)(=O)N2CCC(c3ccccc3)CC2)CC2CCCCC2)cc1 [B7, N-{3-[(cyclohexylmethyl)(3-{[(4-phenylpiperidin-1-yl)sulfonyl]amino}propyl)amino]propyl}-4-(dimethylamino)benzene-1-sulfonamide]
[1]; H929, Celltiter-Glo
  EC50: 6.86 µM
[2]; [11]
  Liver Microsome Stability-% Left after 30 min w/ NADPH (%) Mouse: 1.47%
[3]; [12]
  Liver Microsome Stability-% Left after 30 min w/ NADPH (%) Rat: 0.58%
[4]; [13]
  Liver Microsome Stability-% Left after 30 min w/ NADPH (%) Human: 0.03%
[5]; U266, Celltiter-Glo
  EC50: 7.48 µM
[6]; [14]
  Liver Microsome Stability-% Left after 30 min w/ NADPH (%) Monkey: 0.04%
[7]; Dox inducible, 293FRT/TO cells
  IC50: 6900 nM
[8]; Dox inducible, 293FRT/TO cells
  IC50: 24.3 µM

## CN(C)c1ccc(S(=O)(=O)N2C/C=C\CN(S(=O)(=O)N3CCC(c4ccccc4)CC3)CCCN(CC3CCCCC3)CCC2)cc1 [B8, 4-{[(11Z)-5-(cyclohexylmethyl)-9-[(4-phenylpiperidin-1-yl)sulfonyl]-1,5,9-triazacyclotridec-11-en-1-yl]sulfonyl}-N,N-dimethylaniline]
[1]; H929, Celltiter-Glo
  EC50: > 25 µM
[2]; [11]
  Liver Microsome Stability-% Left after 30 min w/ NADPH (%) Mouse: 17.1%
[3]; [12]
  Liver Microsome Stability-% Left after 30 min w/ NADPH (%) Rat: 23.8%
[4]; [13]
  Liver Microsome Stability-% Left after 30 min w/ NADPH (%) Human: 22.1%
[5]; U266, Celltiter-Glo
  EC50: > 25 µM
[6]; [14]
  Liver Microsome Stability-% Left after 30 min w/ NADPH (%) Monkey: 15.5%
[7]; Dox inducible, 293FRT/TO cells
  IC50: > 25000 nM
[8]; Dox inducible, 293FRT/TO cells
  IC50: > 25 µM

## C=C1CN(S(=O)(=O)c2ccc(N(C)C)cc2)CCCN(CC2CCCCC2)CCCN(S(=O)(=O)N2CCC(C#N)CC2)C1 [A39, 1-{[9-(cyclohexylmethyl)-5-[4-(dimethylamino)benzenesulfonyl]-3-methylidene-1,5,9-triazacyclododecan-1-yl]sulfonyl}piperidine-4-carbonitrile]
[1]; [9]
  EC50: > 25 µM
[2]; mouse, 30 min, NADPH
  Liver Microsome Stability-% Left after 30 min w/ NADPH (%) Mouse: 0.26%
[3]; rat, 30 min, NADPH
  Liver Microsome Stability-% Left after 30 min w/ NADPH (%) Rat: 6%
[4]; human, 30 min, NADPH
  Liver Microsome Stability-% Left after 30 min w/ NADPH (%) Human: 0.05%
[5]; [10]
  EC50: 10.4 µM
[6]; monkey, 30 min, NADPH
  Liver Microsome Stability-% Left after 30 min w/ NADPH (%) Monkey: 0.11%
[7]; 293FRT/TO
  IC50: 761 nM
[8]; 293FRT/TO
  IC50: > 25 µM

## O=S(=O)(N1CCCCC1)N1CCCN(Cc2ccccc2)CCCN(S(=O)(=O)N2CCCCC2)CC2(CC2)C1 [A18, 9-benzyl-5,13-bis(piperidin-1-ylsulfonyl)-5,9,13-triazaspiro[2.11]tetradecane hydrochloride]
[1]; [9]
  EC50: > 25 µM
[2]; mouse, 30 min, NADPH
  Liver Microsome Stability-% Left after 30 min w/ NADPH (%) Mouse: 0.05%
[3]; rat, 30 min, NADPH
  Liver Microsome Stability-% Left after 30 min w/ NADPH (%) Rat: 0.11%
[4]; human, 30 min, NADPH
  Liver Microsome Stability-% Left after 30 min w/ NADPH (%) Human: 0.04%
[5]; [10]
  EC50: 15.5 µM
[6]; monkey, 30 min, NADPH
  Liver Microsome Stability-% Left after 30 min w/ NADPH (%) Monkey: 0.05%
[7]; 293FRT/TO
  IC50: > 25000 nM
[8]; 293FRT/TO
  IC50: > 25 µM

## CN(C)c1ccc(S(=O)(=O)N2CCCN(CC3CCCCC3)CCCN(S(=O)(=O)N3CCC(c4ccccc4)CC3)CC(=O)C2)cc1 [B20, 9-(cyclohexylmethyl)-1-((4-(dimethylamino)phenyl)sulfonyl)-5-((4-phenylpiperidin-1-yl)sulfonyl)-1,5,9-triazacyclododecan-3-one]
[1]; H929, Celltiter-Glo
  EC50: > 25 µM
[2]; [11]
  Liver Microsome Stability-% Left after 30 min w/ NADPH (%) Mouse: 3.41%
[3]; [12]
  Liver Microsome Stability-% Left after 30 min w/ NADPH (%) Rat: 11.1%
[4]; [13]
  Liver Microsome Stability-% Left after 30 min w/ NADPH (%) Human: 5.43%
[5]; U266, Celltiter-Glo
  EC50: > 25 µM
[6]; [14]
  Liver Microsome Stability-% Left after 30 min w/ NADPH (%) Monkey: 1.73%
[7]; Dox inducible, 293FRT/TO cells
  IC50: 794 nM
[8]; Dox inducible, 293FRT/TO cells
  IC50: > 25 µM
